Structures are written as SMILES.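 Results reflect a 48-hour exposure of cells in 96-well plates to compound at five concentrations. GI50 = concentration required for 50% inhibition of growth. TGI: concentration producing complete growth inhibition.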

Test systems include A498 renal; A549 NSCLC; BT-549 breast; EKVX NSCLC; HCT-116 colon; K-562 leukemia; NCI-H460 lung; NCI/ADR-RES ovarian; SF-295 CNS; SK-OV-3 ovarian.
Test in all cases: inhibition of tumour cell growth, NCI panel, 48 h

In the case of `Nc1ccc(-c2nc3ccccc3[nH]2)c(O)c1`, the GI50 in the assay with A498 renal is 31.9 µM; in the assay with A549 NSCLC, 35.3 µM; in the assay with BT-549 breast, 50.9 µM; with EKVX NSCLC, 15.1 µM; in the assay with HCT-116 colon it was 16.3 µM; with K-562 leukemia it was 31.5 µM. Also, the GI50 in the assay on NCI-H460 lung was 30.4 µM; with NCI/ADR-RES ovarian it was 27.8 µM; in the assay on SF-295 CNS, 26.5 µM; with SK-OV-3 ovarian, above 100 µM. Further, the TGI in the assay with A498 renal is 68.5 µM; in the assay on A549 NSCLC, above 100 µM; with BT-549 breast it was above 100 µM; in the assay with EKVX NSCLC it was above 100 µM; in the assay with HCT-116 colon it was 40.7 µM; with K-562 leukemia, above 100 µM. Besides, the TGI in the assay with NCI-H460 lung was above 100 µM; in the assay on NCI/ADR-RES ovarian, 81.1 µM; with SF-295 CNS, 63.4 µM; in the assay with SK-OV-3 ovarian, above 100 µM.
On to `COC(=O)Nc1nc2ccc(Oc3ccc(NC(=O)Nc4cccc(Br)c4)cc3)cc2[nH]1`, for which the GI50 is 2.1 µM in the assay with A498 renal; 4.24 µM in the assay on A549 NSCLC; 11.3 µM in the assay with BT-549 breast; 8.28 µM in the assay on EKVX NSCLC; 1.32 µM with HCT-116 colon; 0.162 µM in the assay with K-562 leukemia. The GI50 is 1.27 µM in the assay with NCI-H460 lung, above 6.8 µM with NCI/ADR-RES ovarian, 1.18 µM in the assay with SF-295 CNS and 2.95 µM in the assay with SK-OV-3 ovarian. In addition, the TGI with A498 renal was 17.4 µM; with A549 NSCLC, above 13.4 µM; in the assay on BT-549 breast it was above 25 µM; in the assay on EKVX NSCLC it was above 25 µM; with HCT-116 colon, above 12.6 µM; in the assay with K-562 leukemia, above 12 µM. For the same compound, the TGI in the assay with NCI-H460 lung was above 13.5 µM; in the assay on NCI/ADR-RES ovarian it was above 25 µM; in the assay on SF-295 CNS, above 19.2 µM; with SK-OV-3 ovarian it was 15.3 µM.
On to `OCc1cccc(-c2ccc3ncc(-c4nc(NC5CC5)ncc4F)n3c2)c1`, for which the GI50 was 0.152 µM with A498 renal; 0.341 µM in the assay on A549 NSCLC; 0.23 µM in the assay on BT-549 breast; 0.296 µM in the assay on EKVX NSCLC; 0.182 µM with HCT-116 colon; 0.434 µM in the assay on K-562 leukemia. Further, the GI50 is 0.249 µM in the assay with NCI-H460 lung, 0.321 µM in the assay on NCI/ADR-RES ovarian, 0.334 µM with SF-295 CNS and 0.448 µM with SK-OV-3 ovarian. For the same compound, the TGI with A498 renal is 0.367 µM; in the assay on A549 NSCLC it was above 100 µM; with BT-549 breast, 0.811 µM; in the assay with EKVX NSCLC, 0.946 µM; in the assay with HCT-116 colon, above 100 µM; in the assay with K-562 leukemia, above 100 µM. The TGI in the assay with NCI-H460 lung stood at 0.825 µM; in the assay on NCI/ADR-RES ovarian, 1.68 µM; in the assay with SF-295 CNS, 1.59 µM; in the assay on SK-OV-3 ovarian, 7.06 µM.
In the case of `CCc1ccc(-c2ccc(=O)n(-c3ccc(S(N)(=O)=O)cc3)n2)cc1`, the GI50 with A498 renal was 8.86 µM; in the assay on A549 NSCLC, 3.14 µM; in the assay with BT-549 breast, 0.916 µM; in the assay with EKVX NSCLC, 5.65 µM; in the assay with HCT-116 colon it was 0.951 µM; in the assay with K-562 leukemia, 0.297 µM. The GI50 with NCI-H460 lung was 0.97 µM; in the assay with NCI/ADR-RES ovarian, 0.412 µM; in the assay on SF-295 CNS it was 0.992 µM; with SK-OV-3 ovarian it was 4.44 µM. In addition, the TGI in the assay with A498 renal is above 61.4 µM; with A549 NSCLC, above 100 µM; with BT-549 breast it was 21.7 µM; in the assay with EKVX NSCLC, above 100 µM; in the assay with HCT-116 colon it was above 43.7 µM; in the assay on K-562 leukemia, above 46.6 µM. The TGI in the assay with NCI-H460 lung was above 21.2 µM; in the assay with NCI/ADR-RES ovarian it was 12.2 µM; in the assay on SF-295 CNS, 29.4 µM; with SK-OV-3 ovarian, above 100 µM.
As to `Cc1[nH]c(C(=O)Nc2ccc(C(=O)N3CCNCC3)cc2OC(C)C)c(Cl)c1Cl`, the GI50 was 11.2 µM in the assay on A498 renal; 14.3 µM in the assay on BT-549 breast; 3.49 µM with EKVX NSCLC; 1.85 µM in the assay on HCT-116 colon; 2.15 µM with K-562 leukemia; 1.88 µM with NCI-H460 lung. Also, the GI50 was 2.25 µM in the assay on NCI/ADR-RES ovarian and 1.89 µM in the assay on SF-295 CNS. The TGI in the assay with A498 renal came out at 24.7 µM; in the assay with BT-549 breast it was 29 µM; in the assay on EKVX NSCLC it was 15 µM; in the assay on HCT-116 colon, 3.41 µM; with K-562 leukemia it was 4.71 µM; in the assay on NCI-H460 lung it was 3.44 µM. Moreover, the TGI was determined as 5.58 µM in the assay on NCI/ADR-RES ovarian and 3.68 µM in the assay on SF-295 CNS.
Turning to `Nc1ccc(N=Nc2ccccc2)c(N)n1`, the GI50 was 12.9 µM with A498 renal; 27.4 µM in the assay with A549 NSCLC; 16.6 µM in the assay with BT-549 breast; 4.08 µM with EKVX NSCLC; 23 µM with HCT-116 colon; 42.7 µM in the assay with K-562 leukemia. The GI50 is 29.1 µM with NCI-H460 lung, 31 µM in the assay with NCI/ADR-RES ovarian, 17 µM in the assay with SF-295 CNS and 30.1 µM in the assay on SK-OV-3 ovarian. Also, the TGI was 39.8 µM in the assay with A498 renal; above 100 µM in the assay with A549 NSCLC; 46.1 µM in the assay with BT-549 breast; 33.4 µM with EKVX NSCLC; 60.5 µM in the assay with HCT-116 colon; above 100 µM with K-562 leukemia. In addition, the TGI is 97.4 µM with NCI-H460 lung, above 100 µM with NCI/ADR-RES ovarian, 50.9 µM with SF-295 CNS and above 100 µM in the assay with SK-OV-3 ovarian.
On to `COc1ccc(Nc2ncccc2/C=C/C(=O)c2cc(OC)c(OC)c(OC)c2)cc1`, for which the GI50 with A498 renal is 3.19 µM; in the assay with BT-549 breast, 1.58 µM; in the assay with EKVX NSCLC, 1.8 µM; in the assay on HCT-116 colon it was 1.02 µM; in the assay on K-562 leukemia, 0.783 µM; in the assay on NCI-H460 lung, 2.01 µM. Moreover, the GI50 in the assay on NCI/ADR-RES ovarian was 2.23 µM; in the assay with SF-295 CNS, 1.85 µM; in the assay with SK-OV-3 ovarian, 2.72 µM. In addition, the TGI amounted to 11.7 µM with A498 renal; 3.08 µM with BT-549 breast; 4.01 µM in the assay with EKVX NSCLC; 2.28 µM in the assay with HCT-116 colon; 3.51 µM in the assay with K-562 leukemia; 4.25 µM in the assay with NCI-H460 lung. Further, the TGI in the assay on NCI/ADR-RES ovarian came out at 13.7 µM; in the assay with SF-295 CNS, 5.59 µM; with SK-OV-3 ovarian it was 8.56 µM.

For the origin of these results see PubChem BioAssay (NCI).
